≈ marks a conversion by molar mass, not a printed value.
Columns and labels:
Test in all cases: ≥ marks a high value that may be exact or a test limit, other limits are often not marked, values filed in µg/mL are converted to µM
[1] = tested on: Pseudomonas aeruginosa ATCC 27853
[2] = tested on: Escherichia coli ATCC 25922
[3] = tested on: Staphylococcus epidermidis ATCC 12228
[4] = tested on: Shigella dysenteriae ATCC 9752
[5] = tested on: Staphylococcus aureus ATCC 6538P
[6] = tested on: Salmonella enterica subsp. enterica serovar Typhimurium ATCC 14028
[7] = tested on: Klebsiella pneumoniae ATCC 10031
[8] = tested on: Micrococcus luteus ATCC 10240
[9] = tested on: Bacillus subtilis ATCC 6633
[10] = tested on: Pseudomonas aeruginosa Ps4
Escherichia coli K-12 = tested on: Escherichia coli K-12
[11] = tested on: Staphylococcus aureus ATCC 6538
[12] = tested on: Escherichia coli ATCC 8739
[13] = tested on: Candida albicans ATCC 90028
[14] = tested on: Staphylococcus aureus ATCC 43300
[15] = tested on: Staphylococcus aureus ATCC 25923

Question: With CC(C)C[C@H](NC(=O)[C@H](Cc1c[nH]c2ccccc12)NC(=O)[C@H](CCCCN)NC(=O)[C@H](Cc1ccccc1)NC(=O)[C@H](CC(C)C)NC(=O)[C@H](Cc1c[nH]c2ccccc12)NC(=O)[C@H](CCCCN)NC(=O)[C@H](CC(C)C)NC(=O)[C@@H](N)Cc1ccccc1)C(=O)N[C@@H](CCCCN)C(=O)N[C@@H](CCCCN)C(N)=O [FLKWLFKWLKK] as the molecule, how does the MIC [1] read?
Answer: 16.3 µM (≈ 25 µg/mL)

Question: And the MIC [2]?
Answer: 32.5 µM (≈ 50 µg/mL)

Question: And the MIC [3]?
Answer: 8.13 µM (≈ 12.5 µg/mL)

Question: What about the MIC [4] of the same molecule?
Answer: 16.3 µM (≈ 25 µg/mL)

Question: And the MIC [5]?
Answer: 8.13 µM (≈ 12.5 µg/mL)

Question: What about the MIC [6] of the same molecule?
Answer: 130 µM (≈ 200 µg/mL)

Question: And the MIC [7]?
Answer: ≥ 32.5 µM

Question: And the MIC [8]?
Answer: 2.02 µM (≈ 3.1 µg/mL)

Question: And the MIC [9]?
Answer: 4.1 µM (≈ 6.3 µg/mL)

Question: Which results are given for CC(C)C[C@H](NC(=O)[C@H](Cc1c[nH]c2ccccc12)NC(=O)[C@H](Cc1c[nH]c2ccccc12)NC(=O)[C@H](CC(C)C)NC(=O)[C@@H](N)Cc1ccccc1)C(=O)N[C@@H](Cc1ccccc1)C(=O)N[C@@H](CCCCN)C(=O)N[C@@H](Cc1c[nH]c2ccccc12)C(=O)N[C@@H](C)C(=O)N[C@@H](Cc1c[nH]c2ccccc12)C(=O)N[C@@H](CCCCN)C(N)=O [FLWWLFKWAWK]?
Answer: MIC [1]: > 124 µM; MIC [2]: > 124 µM; MIC [3]: 1.92 µM (≈ 3.1 µg/mL); MIC [4]: ≥ 124 µM; MIC [5]: 3.91 µM (≈ 6.3 µg/mL); MIC [6]: > 124 µM; MIC [7]: ≥ 124 µM; MIC [8]: 1.92 µM (≈ 3.1 µg/mL); MIC [9]: 1.92 µM (≈ 3.1 µg/mL)

Question: Which MIC [10] does the source give for CC[C@H](C)[C@H](NC(=O)[C@H](CCCN=C(N)N)NC(=O)[C@@H](NC(=O)[C@H](CC(N)=O)NC(=O)[C@H](CCCN=C(N)N)NC(=O)[C@H](CCC(N)=O)NC(=O)[C@H](Cc1c[nH]c2ccccc12)NC(=O)[C@H](CCC(N)=O)NC(=O)[C@@H](N)Cc1ccccc1)[C@@H](C)CC)C(=O)N[C@@H](CCCN=C(N)N)C(=O)N[C@@H](CCCN=C(N)N)C(N)=O [FQWQRNIRIRR] here?
Answer: ≥ 159 µM

Question: Which MIC [10] does the source give for CC[C@H](C)[C@H](NC(=O)[C@H](CC(N)=O)NC(=O)[C@H](CCCN=C(N)N)NC(=O)[C@H](CCC(N)=O)NC(=O)[C@H](Cc1c[nH]c2ccccc12)NC(=O)[C@@H](N)Cc1ccccc1)C(=O)N[C@@H](CCCN=C(N)N)C(=O)N[C@@H](CCCCN)C(=O)N[C@H](C(=O)N[C@@H](CCCN=C(N)N)C(=O)N[C@@H](CCCN=C(N)N)C(=O)N[C@@H](CCCN=C(N)N)C(N)=O)C(C)C [FWQRNIRKVRRR] here?
Answer: ≥ 146 µM

Question: CC[C@H](C)[C@H](NC(=O)[C@H](CC(N)=O)NC(=O)[C@H](CCCN=C(N)N)NC(=O)[C@H](CCC(N)=O)NC(=O)[C@H](Cc1c[nH]c2ccccc12)NC(=O)[C@@H](N)Cc1ccccc1)C(=O)N[C@@H](CCCN=C(N)N)C(=O)N[C@@H](CCCCN)C(=O)N[C@H](C(=O)N[C@@H](CCCN=C(N)N)C(=O)N[C@@H](CCCN=C(N)N)C(N)=O)C(C)C [FWQRNIRKVRR] was tested. Which MIC [10] did it give?
Answer: ≥ 160 µM

Question: With CC[C@H](C)[C@H](NC(=O)[C@H](CC(N)=O)NC(=O)[C@H](CCCN=C(N)N)NC(=O)[C@H](CCC(N)=O)NC(=O)[C@H](Cc1c[nH]c2ccccc12)NC(=O)[C@@H](N)Cc1ccccc1)C(=O)N[C@@H](Cc1ccc(O)cc1)C(=O)N[C@@H](CCCCN)C(=O)N[C@H](C(=O)N[C@@H](CCCN=C(N)N)C(N)=O)C(C)C [FWQRNIYKVR] as the molecule, how does the MIC [10] read?
Answer: ≥ 177 µM

Question: Which MIC [10] does the source give for CC(C)[C@H](NC(=O)[C@H](CCCCN)NC(=O)[C@H](CCCN=C(N)N)NC(=O)[C@H](Cc1c[nH]c2ccccc12)NC(=O)[C@H](CC(N)=O)NC(=O)[C@H](CCCN=C(N)N)NC(=O)[C@H](CCC(N)=O)NC(=O)[C@H](Cc1c[nH]c2ccccc12)NC(=O)[C@@H](N)Cc1ccccc1)C(=O)N[C@@H](CCCN=C(N)N)C(N)=O [FWQRNWRKVR] here?
Answer: ≥ 169 µM

Question: With CC[C@H](C)[C@H](NC(=O)[C@H](C)NC(=O)[C@H](CCC(N)=O)NC(=O)[C@@H](NC(=O)[C@@H](NC(=O)[C@H](CCCN=C(N)N)NC(=O)[C@H](CCCCN)NC(=O)[C@H](Cc1ccccc1)NC(=O)CN)[C@@H](C)CC)C(C)C)C(=O)N[C@@H](CCCCN)C(=O)N[C@@H](CC(=O)O)C(=O)N[C@@H](Cc1ccccc1)C(=O)N[C@@H](CC(C)C)C(=O)N[C@@H](CCCN=C(N)N)C(=O)N[C@@H](CC(N)=O)C(=O)N[C@@H](CC(C)C)C(=O)N[C@H](C(N)=O)C(C)C [GFKRIVQAIKDFLRNLV] as the molecule, how does the MIC (Escherichia coli K-12) read?
Answer: ≥ 60 µM

Question: For CC[C@H](C)[C@H](NC(=O)[C@H](CCCCN)NC(=O)[C@@H](NC(=O)[C@H](CO)NC(=O)[C@H](CC(=O)O)NC(=O)[C@H](Cc1c[nH]c2ccccc12)NC(=O)[C@H](CC(C)C)NC(=O)CN)[C@@H](C)CC)C(=O)N[C@@H](C)C(=O)NCC(=O)N[C@@H](CCCCN)C(=O)N[C@@H](CCCCN)C(=O)N[C@@H](CC(C)C)C(=O)N[C@@H](Cc1ccccc1)C(=O)N[C@H](C(=O)N[C@@H](CC(N)=O)C(=O)N[C@H](C(=O)N[C@@H](CC(C)C)C(=O)N[C@@H](CC(=O)O)C(=O)N[C@@H](CCCCN)C(=O)N[C@H](C(=O)N[C@@H](CCCN=C(N)N)C(=O)N[C@H]1CSSC[C@@H](C(=O)O)NC(=O)CNC(=O)CNC(=O)[C@H](C)NC(=O)[C@H](C(C)C)NC(=O)[C@H](CCCCN)NC1=O)[C@@H](C)CC)C(C)C)C(C)C [GLWDSIKIAGKKLFVNVLDKIRCKVAGGC], which MIC [11] is on record?
Answer: 3.1 µM (≈ 9.71 µg/mL)

Question: And the MIC [12]?
Answer: 12.5 µM (≈ 39.1 µg/mL)

Question: And the MIC [13]?
Answer: ≥ 100 µM

Question: What about the MIC [14] of the same molecule?
Answer: 12.5 µM (≈ 39.1 µg/mL)

Question: What does the source list for CC(C)C[C@H](NC(=O)[C@H](CC(C)C)NC(=O)[C@H](CCCCN)NC(=O)[C@H](CC(C)C)NC(=O)[C@H](CC(C)C)NC(=O)[C@H](Cc1c[nH]c2ccccc12)NC(=O)[C@H](CCCCN)NC(=O)[C@H](CC(C)C)NC(=O)[C@H](CC(C)C)NC(=O)[C@H](CCCCN)NC(=O)[C@H](CCCCN)NC(=O)[C@@H](N)CC(C)C)C(=O)N[C@@H](CCCCN)C(N)=O [LKKLLKWLLKLLK]?
Answer: MIC [1]: > 122 µM; MIC [2]: > 122 µM; MIC [3]: 7.63 µM (≈ 12.5 µg/mL); MIC [4]: ≥ 122 µM; MIC [5]: 7.63 µM (≈ 12.5 µg/mL); MIC [6]: > 122 µM; MIC [7]: ≥ 122 µM; MIC [8]: 1.89 µM (≈ 3.1 µg/mL); MIC [9]: 1.89 µM (≈ 3.1 µg/mL)

Question: With CC(C)C[C@H](NC(=O)[C@H](CC(C)C)NC(=O)[C@H](CCCCN)NC(=O)[C@H](CC(C)C)NC(=O)[C@H](CC(C)C)NC(=O)[C@H](Cc1c[nH]c2ccccc12)NC(=O)[C@H](CCCCN)NC(=O)[C@H](CC(C)C)NC(=O)[C@H](CC(C)C)NC(=O)[C@H](CCCCN)NC(=O)[C@H](CC(C)C)NC(=O)[C@@H](N)CC(C)C)C(=O)N[C@@H](CCCCN)C(N)=O [LLKLLKWLLKLLK] as the molecule, how does the MIC [1] read?
Answer: > 123 µM

Question: What about the MIC [2] of the same molecule?
Answer: > 123 µM

Question: What about the MIC [3] of the same molecule?
Answer: 30.8 µM (≈ 50 µg/mL)

Question: And the MIC [4]?
Answer: ≥ 123 µM

Question: And the MIC [5]?
Answer: 15.4 µM (≈ 25 µg/mL)

Question: And the MIC [6]?
Answer: > 123 µM

Question: And the MIC [7]?
Answer: ≥ 123 µM

Question: What about the MIC [8] of the same molecule?
Answer: 3.88 µM (≈ 6.3 µg/mL)

Question: And the MIC [9]?
Answer: 3.88 µM (≈ 6.3 µg/mL)

Question: How did the MIC [12] turn out when CSCC[C@H](N)C(=O)N[C@@H](C)C(=O)N[C@@H](CCCN=C(N)N)C(=O)N[C@@H](CC(N)=O)C(=O)N[C@@H](CCCCN)C(=O)N1CCC[C@H]1C(=O)N[C@@H](CC(C)C)C(=O)NCC(=O)N[C@@H](CCCCN)C(=O)N[C@@H](CCCCN)C(=O)N[C@@H](CC(C)C)C(=O)N[C@@H](CCCN=C(N)N)C(=O)N[C@@H](CC(C)C)C(=O)N[C@@H](C)C(=O)N[C@@H](C)C(=O)N[C@@H](C)C(=O)N[C@@H](Cc1ccccc1)C(=O)N[C@@H](CCCCN)C(=O)O [MARNKPLGKKLRLAAAFK] was run?
Answer: ≥ 127 µM

Question: And the MIC [15]?
Answer: > 127 µM

Question: Which results are given for CSCC[C@H](N)C(=O)N[C@@H](CCCCN)C(=O)N[C@@H](CCCCN)C(=O)N[C@@H](CC(C)C)C(=O)N[C@@H](Cc1ccccc1)C(=O)N[C@@H](C)C(=O)N[C@@H](C)C(=O)N[C@@H](CC(C)C)C(=O)N[C@@H](C)C(=O)N[C@@H](CC(C)C)C(=O)N[C@@H](C)C(=O)N[C@@H](C)C(=O)N[C@H](C(=O)N[C@H](C(=O)N[C@@H](C)C(=O)N1CCC[C@H]1C(=O)N[C@H](C(=O)N[C@@H](Cc1c[nH]c2ccccc12)C(=O)O)C(C)C)C(C)C)C(C)C [MKKLFAALALAAVVAPVW]?
Answer: MIC [12]: ≥ 135 µM; MIC [15]: > 135 µM

Question: Which MIC [12] does the source give for CC(C)C[C@H](NC(=O)[C@H](CCCCN)NC(=O)[C@H](CCCCN)NC(=O)[C@H](CCCN=C(N)N)NC(=O)[C@H](CCCN=C(N)N)NC(=O)[C@H](CO)NC(=O)[C@H](CCC(N)=O)NC(=O)[C@H](Cc1ccc(O)cc1)NC(=O)[C@H](Cc1ccccc1)NC(=O)[C@H](CCC(N)=O)NC(=O)[C@H](CO)NC(=O)[C@H](CCC(=O)O)NC(=O)[C@H](CCCN=C(N)N)NC(=O)[C@@H](N)CC(N)=O)C(=O)N[C@@H](CO)C(=O)N[C@@H](CO)C(=O)N[C@@H](CCC(N)=O)C(=O)N[C@H](C(=O)O)C(C)C [NRESQFYQSRRKKLSSQV] here?
Answer: ≥ 114 µM

Question: And the MIC [15]?
Answer: > 114 µM
